# Experimental data reported in US10519162B2, “6,7-dihydropyrazolo[1,5-α]pyrazin-4(5H)-one compounds and their use as negative allosteric modulators of mGluR2 receptors” (Janssen Pharmaceutica NV, priority 2014, dated 2019).
# How the values were obtained:
# human mGlu2 receptor = target: T1, human mGlu2 receptor (Homo sapiens, UniProt Q14416); assay: [35S]GTPγS binding assay (mGluR2 negative allosteric modulation, glutamate ~EC80 60 μM); type: biochemical; settings: for Emax / GTPγS-hmGluR2 anGT Emax: maximal % inhibition relative to the control glutamate response (EC80 glutamate); for Emax: read-out: GTPγS-hmGluR2 anGT Emax; for IC50: membranes from CHO cells transfected with human mGlu2 receptor, glutamate ~EC80 (60 μM), pIC50 = −log IC50 (M), read-out: GTPγS-hmGluR2 anGT pIC50 (converted)
# T1 construct: expressed in transfected cells; host or cells: CHO cells
# T1 sequence (Q14416 19-872): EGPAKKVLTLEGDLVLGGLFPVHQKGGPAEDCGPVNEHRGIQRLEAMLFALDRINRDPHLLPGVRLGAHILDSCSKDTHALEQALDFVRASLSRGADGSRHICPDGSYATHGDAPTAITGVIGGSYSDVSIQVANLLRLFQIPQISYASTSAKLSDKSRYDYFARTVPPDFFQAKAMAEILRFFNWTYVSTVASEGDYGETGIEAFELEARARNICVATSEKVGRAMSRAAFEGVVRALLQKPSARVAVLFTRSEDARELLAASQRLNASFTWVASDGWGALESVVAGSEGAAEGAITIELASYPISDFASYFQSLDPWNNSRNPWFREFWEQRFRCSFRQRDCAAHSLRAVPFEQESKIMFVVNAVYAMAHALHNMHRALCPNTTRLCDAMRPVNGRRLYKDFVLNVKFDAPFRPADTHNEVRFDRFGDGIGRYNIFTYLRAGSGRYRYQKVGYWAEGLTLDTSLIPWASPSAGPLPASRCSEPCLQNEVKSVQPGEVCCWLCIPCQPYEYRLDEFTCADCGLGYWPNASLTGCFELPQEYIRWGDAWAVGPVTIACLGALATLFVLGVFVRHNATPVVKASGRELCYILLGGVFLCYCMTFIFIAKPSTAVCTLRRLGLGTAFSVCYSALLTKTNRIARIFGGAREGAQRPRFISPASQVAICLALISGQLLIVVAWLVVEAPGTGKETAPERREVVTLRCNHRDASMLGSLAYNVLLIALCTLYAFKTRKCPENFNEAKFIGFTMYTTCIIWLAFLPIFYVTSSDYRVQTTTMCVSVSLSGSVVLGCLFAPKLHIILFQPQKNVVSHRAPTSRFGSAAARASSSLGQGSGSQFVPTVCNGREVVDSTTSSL
# Protocol: 1) [^35S]GTPγS Binding Assay
# [^35S]GTPγS Binding Assay
# Total reaction volume was 200 μl. […] Membrane-bound radioactivity was counted in a Topcount.
# Male Wiga Wistar rats = assay: Reversal of LY-404039-induced decrease of palpebral opening in apomorphine-challenged rats (APO LY-404039); type: in vivo, rat; settings: for ED50: Rattus norvegicus, PO (oral route), apomorphine challenged rats;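 on ED50: Reversal defined as cumulative palpebral opening score above 26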
# Protocol: B) In Vivo Pharmacology 1) Reversal of LY-404039-Induced Decrease of Palpebral Opening in Apomorphine-Challenged Rats.
# Male Wiga Wistar rats (Crl:WI; Charles River Germany; 220±40 g) were housed under standard laboratory conditions (21±2° C.; 50-65% relative humidity; light-dark cycle set at 12 h; lights on at 6.00 h) and fasted overnight prior to the start of the experiments (tap water remained available ad libitum). During the test period, they were housed in individual cages. Palpebral opening was scored every 5 min over the first hour after injection of apomorphine (1.0 mg/kg, i.v.) in animals either pretreated or not pretreated with LY-404039 (2.5 mg/kg, s.c.) at 1 h prior to the apomorphine injection. The animals were also pretreated with test compound or solvent at a predefined interval before apomorphine challenge. The score system was: (5) exophthalmos, (4) wide open, (3) open for three-quarters, (2) half open, (1) open for one-quarter, (0) closed. The scores for palpebral opening were cumulated over the 60-min observation period.
# In animals receiving apomorphine alone the median palpebral opening is 43 whereas in animals receiving apomorphine and LY-404039, the median palpebral opening is 17.
# rats = assay: Reversal of the effect of the mGluR2 PAM JNJ-42153605-induced inhibition of scopolamine-induced hyperlocomotion (SCOP JNJ-42153605); type: in vivo, rat; settings: Rattus norvegicus; PO (oral route); rats; reversal criterion total distance >1500 cm
# Protocol: 2) Reversal of the Effect of the mGluR2 PAM JNJ-42153605-Induced Inhibition of Scopolamine-Induced Hyperlocomotion Apparatus
# Motor activity was measured in microprocessor-based motor activity arenas (closed gray PVC cylinders with a height of 39 cm and a diameter of 31 cm). Each arena was placed on an infrared LED (8×8 LEDs) lit box (white PVC squared box; 40×40 cm^2; height 12.5 cm. An infrared-sensitive tube camera and a white light source were mounted to the ceiling above the observation chamber to track the animal. The total distance traveled (cm) was recorded and analyzed using the Noldus Ethovision XT Video Tracking System (Version 7.0.418; Noldus, Wageningen, The Netherlands). The intensity of the light within the activity cages (measured in the centre at the level of the floor) ranged between 4 and 8 LUX.
# The rats were pretreated with test compound or vehicle at 60 min before the start of the activity recordings and placed into individual cages. The rats were challenged with JNJ-42153605 (3-(cyclopropylmethyl)-7-(4-phenylpiperidin-1-yl)-8-(trifluoromethyl)[1,2,4]triazolo[4,3-a]pyridine; WO2010/130424; Cid et al. J. Med. Chem. 2012, 55, 8770-8789) (20 mg/kg, i.v.) 30 min before the start of the activity recording combined with scopolamine (0.16 mg/kg, i.v.) just before the start of the activity measurements. Immediately after the injection of scopolamine, the rats were placed into the activity monitors and total distance travelled over the first 30 min was measured.
# Solvent-Pretreated Control Rats.
# Animals receiving the combination of JNJ-42153605 and scopolamine (n=433) almost always travelled a distance of less than 1500 cm (<1500 cm) (only 2.5% of the control rats travelled a distance of more than 1500 cm (>1500 cm)). On the other hand, animals challenged with scopolamine alone (n=215) always travelled a total distance of more than 1500 cm (>1500 cm) and almost always (in 95.8% of the rats) a distance of more than 4400 cm (>4400 cm). […] For reversal of the inhibitory effect of JNJ-42153605 on the scopolamine-induced hyperlocomotion, the following all-or-none criteria were adopted: (1) reversal: total distance >1500 cm.
# Wiga rats = assay: Induction of mydriasis (MYD); type: in vivo; settings: Rattus norvegicus, PO (oral route), pupil diameter >25 units, 1-3 h post-administration
# Protocol: 3) Induction of Mydriasis
# The pupil diameter of Wiga rats was measured with a microscopic micrometer (1 unit=1/24 mm). Criteria for drug-induced effects: pupil diameter >25 units for mydriasis (in controls: 1.9%) 1, 2 or 3 h post-administration of the test compound (wherein the maximum pupil diameter over the full 3 h period is reported).
# [1] = control animals, cumulative score over 60 min
Emax (human mGlu2 receptor),IC50 (human mGlu2 receptor),melting point,GTPγS-hmGluR2 anGT Emax (human mGlu2 receptor),Structure (SMILES),ED50 (Male Wiga Wistar rats),ED50 (rats),ED50 (Wiga rats),"Palpebral opening score, occurrence score > 26 (%) (Male Wiga Wistar rats; [1])","Palpebral opening score, occurrence score > 34 (%) (Male Wiga Wistar rats; [1])","Palpebral opening score, median score (Male Wiga Wistar rats; control animals, scores cumulated over 60 min after apomorphine 1.0 mg/kg i.v., LY-404039 2.5 mg/kg s.c. 1 h before)"
108%,1.7e-09 M,230.53 °C,,C[C@H]1CN(c2ccc(C(F)(F)F)c(Cl)c2)C(=O)c2c(NC(=O)c3cnccn3)cnn21 [Co. No. 176],,0.32 mg/kg,> 10 mg/kg,,,
108%,3.16e-09 M,205.19 °C,,C[C@H]1CN(c2ccc(S(F)(F)(F)(F)F)cc2)C(=O)c2c(NC(=O)c3cccnc3)cnn21 [Co. No. 175],,0.318 mg/kg,> 10 mg/kg,,,
109%,1.51e-09 M,277.76 °C,,Cc1cc(C(=O)Nc2cnn3c2C(=O)N(c2ccc(C(F)(F)F)cc2)C[C@@H]3C)cnc1N (racemic) [Co. No. 187],,0.0794 mg/kg,> 10 mg/kg,,,
105%,1.48e-08 M,125.45 °C,,C[C@H]1CN(c2ccc(OC(F)(F)F)cc2)C(=O)c2c(NC(=O)c3cccnc3)cnn21 [Co. No. 178],,0.318 mg/kg,> 10 mg/kg,,,
113%,1.07e-09 M,193.17 °C,,C[C@H]1CN(c2ccc(Cl)c(Cl)c2)C(=O)c2c(NC(=O)c3cccnc3N)cnn21 [Co. No. 185],,0.08 mg/kg,> 10 mg/kg,,,
110%,7.08e-10 M,142.58 °C,,C[C@H]1CN(c2ccc(C(F)(F)F)c(Cl)c2)C(=O)c2c(NC(=O)c3cccnc3N)cnn21 [Co. No. 182],,0.0985 mg/kg,> 10 mg/kg,,,
112%,1.95e-09 M,222.34 °C,,Cc1cnc(N)c(C(=O)Nc2cnn3c2C(=O)N(c2ccc(C(F)(F)F)cc2)C[C@@H]3C)c1 [Co. No. 191],,0.318 mg/kg,> 10 mg/kg,,,
109%,2.63e-09 M,188.46 °C,,C[C@H]1CN(c2ccc(OC(F)(F)F)cc2)C(=O)c2c(NC(=O)c3cccnc3N)cnn21 [Co. No. 196],,0.32 mg/kg,> 10 mg/kg,,,
108%,1.32e-09 M,190.13 °C,,Cc1cnc(N)c(C(=O)Nc2cnn3c2C(=O)N(c2ccc(C(F)(F)F)c(C)c2)C[C@@H]3C)c1 [Co. No. 197],,0.13 mg/kg,> 10 mg/kg,,,
109%,1.82e-09 M,214.96 °C,,C[C@H]1CN(c2ccc(C(F)(F)F)cc2)C(=O)c2c(NC(=O)c3cccnc3N)cnn21 [Co. No. 189],,0.2 mg/kg,> 10 mg/kg,,,
110%,1.23e-09 M,175.63 °C,,Cc1cc(N2C[C@H](C)n3ncc(NC(=O)c4cccnc4N)c3C2=O)ccc1C(F)(F)F [Co. No. 184],,0.2 mg/kg,> 10 mg/kg,,,

# The remaining lines, values behind:
Structure (SMILES),Emax (human mGlu2 receptor),IC50 (human mGlu2 receptor),melting point,GTPγS-hmGluR2 anGT Emax (human mGlu2 receptor),ED50 (Male Wiga Wistar rats),ED50 (rats),ED50 (Wiga rats),"Palpebral opening score, occurrence score > 26 (%) (Male Wiga Wistar rats; [1])","Palpebral opening score, occurrence score > 34 (%) (Male Wiga Wistar rats; [1])","Palpebral opening score, median score (Male Wiga Wistar rats; control animals, scores cumulated over 60 min after apomorphine 1.0 mg/kg i.v., LY-404039 2.5 mg/kg s.c. 1 h before)"
Cc1cc(C(=O)Nc2cnn3c2C(=O)N(c2ccc(Cl)c(Cl)c2)C[C@@H]3C)cc(C)n1 [Co. No. 106],108%,1.07e-09 M,186.11 °C,,> 0.63 mg/kg,> 0.63 mg/kg,,,,
Cc1ccncc1C(=O)Nc1cnn2c1C(=O)N(c1ccc(C(F)(F)F)c(Cl)c1)C[C@@H]2C [Co. No. 120],109%,1.82e-09 M,145.92 °C,,> 0.63 mg/kg,> 0.63 mg/kg,,,,
Cc1cc(N2C[C@H](C)n3ncc(NC(=O)c4ccc(N)nc4)c3C2=O)ccc1C(F)(F)F [Co. No. 4],106%,1.66e-09 M,202.24 °C,,1.26 mg/kg,0.5 mg/kg,,,,
C[C@H]1CN(c2ccc(Cl)c(Cl)c2)C(=O)c2c(NC(=O)c3cnccn3)cnn21 [Co. No. 104],107%,1.82e-09 M,201.39 °C,,,0.32 mg/kg,6.6 mg/kg,,,
C[C@H]1CN(c2ccc(C(F)(F)F)c(F)c2)C(=O)c2c(NC(=O)c3ccc(N)nc3)cnn21 [Co. No. 13],109%,2.63e-09 M,207.25 °C,,0.2 mg/kg,0.32 mg/kg,,,,
Cc1cc(C(=O)Nc2cnn3c2C(=O)N(c2ccc(C(F)(F)F)c(C)c2)C[C@@H]3C)cc(C)n1 [Co. No. 113],107%,2.04e-09 M,164.61 °C,,,0.5 mg/kg,> 40 mg/kg,,,
Cc1cc(C(=O)Nc2cnn3c2C(=O)N(c2ccc(C(F)(F)F)cc2)C[C@@H]3C)cc(C)n1 [Co. No. 93],110%,2.75e-09 M,154.26 °C,,0.79 mg/kg,0.5 mg/kg,,,,
"CN1CCc2cccc3c2[C@H]1Cc1ccc(O)c(O)c1-3 [Apomorphine alone, apomorphine, reference compound]",,,,,,,,99.5%,95.9%,43
C[C@H]1CN(c2ccc(C(F)(F)F)c(Cl)c2)C(=O)c2c(NC(=O)c3cccnc3)cnn21 [Co. No. 100],106%,2.19e-09 M,157.47 °C,,,0.8 mg/kg,> 2.5 mg/kg,,,
"COCC1CN(c2ccc(C(F)(F)F)cc2)C(=O)c2c(NC(=O)c3ccccc3F)cnn21 (single isomer, unassigned) [Co. No. 62a]",,1.26e-08 M,162.59 °C,111%,> 2.5 mg/kg,> 2.5 mg/kg,,,,
C[C@H]1CN(c2ccc(C(F)(F)F)c(F)c2)C(=O)c2c(NC(=O)c3cccnc3)cnn21 [Co. No. 148],105%,8.51e-09 M,166.06 °C,,> 0.63 mg/kg,> 0.63 mg/kg,,,,
"COCC1CN(c2ccc(C(F)(F)F)cc2)C(=O)c2c(NC(=O)c3ccc(N)nc3)cnn21 (single isomer, unassigned) [Co. No. 95]",,6.31e-09 M,225.94 °C,114%,> 2.5 mg/kg,1.26 mg/kg,,,,
Cc1cc(C(=O)Nc2cnn3c2C(=O)N(c2ccc(C(F)(F)F)c(Cl)c2)C[C@@H]3C)cc(C)n1 [Co. No. 172],110%,1.32e-09 M,,,,0.32 mg/kg,> 40 mg/kg,,,
Cc1cc(C(=O)Nc2cnn3c2C(=O)N(c2ccc(Cl)c(Cl)c2)C[C@@H]3C)ccn1 [Co. No. 171],104%,2.29e-09 M,108.41 °C,,> 0.63 mg/kg,> 0.63 mg/kg,,,,
COc1cc(N2C[C@H](C)n3ncc(NC(=O)c4ccc(N)nc4)c3C2=O)ccc1C(F)(F)F [Co. No. 38],109%,9.12e-09 M,179.66 °C,,,> 2.5 mg/kg,,,,
Cc1cc(N2C[C@H](C)n3ncc(NC(=O)c4ccccn4)c3C2=O)ccc1C(F)(F)F [Co. No. 110],107%,2.34e-09 M,217.95 °C,,,> 0.63 mg/kg,,,,
